Test results: patent publication US20200024278A1, “COMPOSITION COMPRISING ANTIBIOTIC COMPOUND AND AN HETEROCYCLIC COMPOUND AND THEIR USE IN PREVENTING OR TREATING BACTERIAL INFECTIONS” (MUTABILIS, priority 2016, published 2020)
Where two headings read alike, the source gives them in different places.

What was measured:
Assay in all cases: MIC, broth microdilution (CLSI), substance alone or ATB combined with compound at 4 or 8 μg/mL
[1] = test system: ECO 190317; assay type: cell-based, E. coli; settings: ECO 190317; for MIC: Escherichia coli
Outline: (§1)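 CLSI broth microdilution in cation-adjusted Mueller-Hinton broth, 5·10^5 CFU/mL log-phase inoculum, 16-20 h at 35 °C in ambient air. Fosfomycin assays supplemented with 25 μg/ml glucose-6-phosphate.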

[2] = test system: ECO UFR39; assay type: cell-based, E. coli; settings: for MIC: Escherichia coli
Outline: as §1

[3] = test system: KPN 6299; assay type: cell-based, K. pneumoniae; settings: for MIC: Klebsiella pneumoniae
Outline: as §1

[4] = test system: KPN BAA-1898; assay type: cell-based, K. pneumoniae; settings: KPN BAA-1898; for MIC: Klebsiella pneumoniae, BAA1898
Outline: as §1

[5] = test system: KPN UFR42; assay type: cell-based, K. pneumoniae; settings: for MIC: Klebsiella pneumoniae
Outline: as §1

[6] = test system: ECL P99; assay type: cell-based, E. cloacae; settings: ECL P99
Outline: as §1

[7] = antibiotic alone, read-out: MIC ATB alone

For `CO/N=C(\C(=O)N[C@@H]1C(=O)N2C(C(=O)O)=C(COC(N)=O)CS[C@H]12)c1ccco1` [FUR, Cefuroxime, reference compound], the “MIC ATB combined with Example 1 @8 μg/ml” value ([1]; with Example 1 @8 μg/ml) was less than 0.031 µg/mL, the “MIC ATB combined with Example 1 @8 μg/ml” value ([1]; with Example 1 at 8 μg/ml) was less than 0.031 µg/mL and the “MIC ATB combined with Example 7 @8 μgml” value ([1]; with Example 7 at 8 μg/ml) was less than 0.031 µg/mL. The “MIC ATB combined with Example 9 @4 μg/ml” value ([1]; with Example 9 @4 μg/ml) was less than 0.031 µg/mL, the “MIC ATB combined with Example 9 @4 μg/ml” value ([1]; with Example 9 at 4 μg/ml) was less than 0.031 µg/mL and the “MIC ATB combined with Example 11 @8 μg/ml” value ([1]; with Example 11 at 8 μg/ml) was less than 0.031 µg/mL. The “MIC ATB combined with Example 12 @8 μg/ml” value ([1]; with Example 12 at 8 μg/ml) was less than 0.031 µg/mL, the “MIC ATB combined with Example 13 @8 μg/ml” value ([1]; with Example 13 at 8 μg/ml) was less than 0.031 µg/mL and the “MIC ATB combined with Example 14 @8 μg/ml” value ([1]; with Example 14 at 8 μg/ml) was less than 0.031 µg/mL. The “MIC ATB combined with Example 15 @4 μgml” value ([1]; with Example 15 at 4 μg/ml) was less than 0.031 µg/mL, the “MIC ATB combined with Example 16 @4 μg/ml” value ([1]; with Example 16 at 4 μg/ml) was less than 0.031 µg/mL and the MIC [1, 7] was greater than 512 µg/mL. For the same molecule, the MIC ([1]; substance alone, read-out: MIC) was greater than 512 µg/mL, the “MIC ATB combined with Example 1 @8 μg/ml” value ([2]; ECO UFR39, with Example 1 @8 μg/ml) was greater than 32 µg/mL and the “MIC ATB combined with Example 1 @8 μg/ml” value ([2]; ECO UFR39, with Example 1 at 8 μg/ml) was greater than 32 µg/mL. For the same molecule, the “MIC ATB combined with Example 7 @8 μgml” value ([2]; ECO UFR39, with Example 7 at 8 μg/ml) was less than 0.031 µg/mL, the “MIC ATB combined with Example 9 @4 μg/ml” value ([2]; ECO UFR39, with Example 9 @4 μg/ml) was less than 0.031 µg/mL and the “MIC ATB combined with Example 9 @4 μg/ml” value ([2]; ECO UFR39, with Example 9 at 4 μg/ml) was less than 0.031 µg/mL. For the same molecule, the “MIC ATB combined with Example 11 @8 μg/ml” value ([2]; ECO UFR39, with Example 11 at 8 μg/ml) was less than 0.031 µg/mL, the “MIC ATB combined with Example 12 @8 μg/ml” value ([2]; ECO UFR39, with Example 12 at 8 μg/ml) was less than 0.031 µg/mL and the “MIC ATB combined with Example 13 @8 μg/ml” value ([2]; ECO UFR39, with Example 13 at 8 μg/ml) was less than 0.031 µg/mL. The “MIC ATB combined with Example 14 @8 μg/ml” value ([2]; ECO UFR39, with Example 14 at 8 μg/ml) was less than 0.031 µg/mL, the “MIC ATB combined with Example 15 @4 μgml” value ([2]; ECO UFR39, with Example 15 at 4 μg/ml) was less than 0.031 µg/mL and the “MIC ATB combined with Example 16 @4 μg/ml” value ([2]; ECO UFR39, with Example 16 at 4 μg/ml) was less than 0.031 µg/mL. The MIC [2] was greater than 256 µg/mL, the MIC ([2]; ECO UFR39, antibiotic alone, read-out: MIC ATB alone) was greater than 32 µg/mL and the MIC [3, 7] was greater than 512 µg/mL. The MIC ([3]; substance alone, read-out: MIC) was greater than 512 µg/mL, the “MIC ATB combined with Example 1 @8 μg/ml” value ([3]; with Example 1 @8 μg/ml) was 8 µg/mL and the “MIC ATB combined with Example 1 @8 μg/ml” value ([3]; with Example 1 at 8 μg/ml) was 8 µg/mL. For the same molecule, the “MIC ATB combined with Example 7 @8 μgml” value ([3]; with Example 7 at 8 μg/ml) was 2 µg/mL, the “MIC ATB combined with Example 9 @4 μg/ml” value ([3]; with Example 9 @4 μg/ml) was less than 0.031 µg/mL and the “MIC ATB combined with Example 9 @4 μg/ml” value ([3]; with Example 9 at 4 μg/ml) was less than 0.031 µg/mL. For the same molecule, the “MIC ATB combined with Example 11 @8 μg/ml” value ([3]; with Example 11 at 8 μg/ml) was less than 0.031 µg/mL, the “MIC ATB combined with Example 12 @8 μg/ml” value ([3]; with Example 12 at 8 μg/ml) was less than 0.031 µg/mL and the “MIC ATB combined with Example 13 @8 μg/ml” value ([3]; with Example 13 at 8 μg/ml) was 2 µg/mL. For the same molecule, the “MIC ATB combined with Example 14 @8 μg/ml” value ([3]; with Example 14 at 8 μg/ml) was less than 0.031 µg/mL, the “MIC ATB combined with Example 15 @4 μgml” value ([3]; with Example 15 at 4 μg/ml) was less than 0.031 µg/mL and the “MIC ATB combined with Example 16 @4 μg/ml” value ([3]; with Example 16 at 4 μg/ml) was less than 0.031 µg/mL. The “MIC ATB combined with Example 1 @8 μg/ml” value ([4]; with Example 1 @8 μg/ml) was 2 µg/mL, the “MIC ATB combined with Example 1 @8 μg/ml” value ([4]; with Example 1 at 8 μg/ml) was 2 µg/mL and the “MIC ATB combined with Example 7 @8 μgml” value ([4]; with Example 7 at 8 μg/ml) was 8 µg/mL. The “MIC ATB combined with Example 9 @4 μg/ml” value ([4]; with Example 9 @4 μg/ml) was less than 0.031 µg/mL, the “MIC ATB combined with Example 9 @4 μg/ml” value ([4]; with Example 9 at 4 μg/ml) was less than 0.031 µg/mL and the “MIC ATB combined with Example 11 @8 μg/ml” value ([4]; with Example 11 at 8 μg/ml) was less than 0.031 µg/mL. The “MIC ATB combined with Example 12 @8 μg/ml” value ([4]; with Example 12 at 8 μg/ml) was less than 0.031 µg/mL, the “MIC ATB combined with Example 13 @8 μg/ml” value ([4]; with Example 13 at 8 μg/ml) was 8 µg/mL and the “MIC ATB combined with Example 14 @8 μg/ml” value ([4]; with Example 14 at 8 μg/ml) was less than 0.031 µg/mL. The “MIC ATB combined with Example 15 @4 μgml” value ([4]; with Example 15 at 4 μg/ml) was less than 0.031 µg/mL, the “MIC ATB combined with Example 16 @4 μg/ml” value ([4]; with Example 16 at 4 μg/ml) was less than 0.031 µg/mL and the MIC [4, 7] was greater than 512 µg/mL. For the same molecule, the MIC ([4]; substance alone, read-out: MIC) was greater than 512 µg/mL, the “MIC ATB combined with Example 1 @8 μg/ml” value ([5]; KPN UFR42, with Example 1 @8 μg/ml) was greater than 32 µg/mL and the “MIC ATB combined with Example 1 @8 μg/ml” value ([5]; KPN UFR42, with Example 1 at 8 μg/ml) was greater than 32 µg/mL. For the same molecule, the “MIC ATB combined with Example 7 @8 μgml” value ([5]; KPN UFR42, with Example 7 at 8 μg/ml) was greater than 32 µg/mL, the “MIC ATB combined with Example 9 @4 μg/ml” value ([5]; KPN UFR42, with Example 9 @4 μg/ml) was greater than 32 µg/mL and the “MIC ATB combined with Example 9 @4 μg/ml” value ([5]; KPN UFR42, with Example 9 at 4 μg/ml) was greater than 32 µg/mL. The “MIC ATB combined with Example 11 @8 μg/ml” value ([5]; KPN UFR42, with Example 11 at 8 μg/ml) was less than 0.031 µg/mL, the “MIC ATB combined with Example 12 @8 μg/ml” value ([5]; KPN UFR42, with Example 12 at 8 μg/ml) was less than 0.031 µg/mL and the “MIC ATB combined with Example 13 @8 μg/ml” value ([5]; KPN UFR42, with Example 13 at 8 μg/ml) was greater than 32 µg/mL. The “MIC ATB combined with Example 14 @8 μg/ml” value ([5]; KPN UFR42, with Example 14 at 8 μg/ml) was less than 0.031 µg/mL, the “MIC ATB combined with Example 15 @4 μgml” value ([5]; KPN UFR42, with Example 15 at 4 μg/ml) was less than 0.031 µg/mL and the “MIC ATB combined with Example 16 @4 μg/ml” value ([5]; KPN UFR42, with Example 16 at 4 μg/ml) was less than 0.031 µg/mL. The MIC [5] was greater than 256 µg/mL, the MIC ([5]; KPN UFR42, antibiotic alone, read-out: MIC ATB alone) was greater than 32 µg/mL and the “MIC ATB combined with Example 1 @8 μg/ml” value ([6]; with Example 1 @8 μg/ml) was “<=0.031 μg/mL”. The “MIC ATB combined with Example 1 @8 μg/ml” value ([6]; with Example 1 at 8 μg/ml) was “<=0.031 μg/mL”, the “MIC ATB combined with Example 7 @8 μgml” value ([6]; with Example 7 at 8 μg/ml) was greater than 32 µg/mL and the “MIC ATB combined with Example 9 @4 μg/ml” value ([6]; with Example 9 @4 μg/ml) was less than 0.031 µg/mL.
